Reference: patent publication US10925967B2, “Degradation of Bruton's tyrosine kinase (BTK) by conjugation of BTK inhibitors with E3 ligase ligand and methods of use” (Dana-Farber Cancer Institute, Inc., priority 2016, dated 2021)

Columns and labels:
BTK [1] = biological target: T1, BTK (Homo sapiens, UniProt Q06187); assay: K562 cell assay and Western blotting of BTK levels; assay type: cell-based; design: endogenous in cells; host or cells: K562 cells; conditions: K562 cells, 200 nM, 1 μM, or 5 μM, 12 hours
Experimental: K562 cells were treated with DMSO or with 200 nM, 1 μM, or 5 μM of a BTK bifunctional inhibitor compound of the disclosure for 12 hours, followed by protein lysate harvest and Western blotting analysis.
(§1) Cells are lysed using RIPA buffer supplemented with protease inhibitor cocktail (Roche) and phosSTOP phosphatase inhibitor cocktail (Roche) on ice for 15 minutes. The lysates are spun at 20,000×g for 15 minutes on 4° C. and protein concentration is determined using BCA assay (Pierce). The following primary antibodies are used in this study: BTK, GADPH, tubulin and Aurora A kinase (all from Cell Signaling Technology). Blots are imaged using fluorescence-labeled secondary antibodies (LI-COR) on the OdysseyCLxImager (LI-COR). Quantification of band intensities is performed using OdysseyCLx software (LI-COR).

BTK [2] = biological target: T1, BTK; assay: MOLM14 cell assay and Western blotting of BTK, Aurora A and tubulin levels; assay type: cell-based; design: endogenous in cells; conditions: MOLM14 cells, 40 nM, 200 nM, 1 μM, 4 hours
Experimental: MOLM14 cells were treated with DMSO or with 40 nM, 200 nM, 1 μM of a BTK bifunctional inhibitor compound of the disclosure for 4 hours, followed by protein lysate harvest and Western blotting analysis of BTK, Aurora A, and ca-tubulin levels. […] (FIG. 2)
as §1

T1 sequence (Q06187 whole entry): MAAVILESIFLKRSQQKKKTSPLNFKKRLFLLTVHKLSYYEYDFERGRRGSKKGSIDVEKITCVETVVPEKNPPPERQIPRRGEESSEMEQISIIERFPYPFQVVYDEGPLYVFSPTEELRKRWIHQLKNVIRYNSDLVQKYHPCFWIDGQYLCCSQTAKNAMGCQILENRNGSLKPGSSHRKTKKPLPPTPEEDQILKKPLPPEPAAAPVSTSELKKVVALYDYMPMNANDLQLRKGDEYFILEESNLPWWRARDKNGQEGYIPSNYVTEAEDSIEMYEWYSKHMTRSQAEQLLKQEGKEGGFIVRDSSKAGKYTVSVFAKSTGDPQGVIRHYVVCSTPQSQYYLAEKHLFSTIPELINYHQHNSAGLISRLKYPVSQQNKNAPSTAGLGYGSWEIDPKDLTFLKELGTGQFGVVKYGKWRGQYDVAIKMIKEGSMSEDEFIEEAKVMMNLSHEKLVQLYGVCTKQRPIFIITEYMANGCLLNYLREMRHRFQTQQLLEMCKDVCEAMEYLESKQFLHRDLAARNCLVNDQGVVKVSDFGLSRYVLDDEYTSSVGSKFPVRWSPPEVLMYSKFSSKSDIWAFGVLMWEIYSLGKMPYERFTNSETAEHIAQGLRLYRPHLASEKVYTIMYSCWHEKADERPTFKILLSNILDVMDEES

BTK degradation (Western blot) (BTK [1]) | BTK degradation (Western blot) (BTK [2]) | Compound
showed BTK degradation |  | COc1cc(Nc2c(C#N)cnc3cc(OCCCN4CCN(CCOCCOCCOCCNc5cccc6c5C(=O)N(C5CCC(=O)NC5=O)C6=O)CC4)c(OC)cc23)c(Cl)cc1Cl (stereo not drawn) [Compound I-2]
 | showed BTK degradation | COc1cc(Nc2c(C#N)cnc3cc(OCCCN4CCN(CCOCCOCCNc5cccc6c5C(=O)N(C5CCC(=O)NC5=O)C6=O)CC4)c(OC)cc23)c(Cl)cc1Cl (stereo not drawn) [Compound I-3]
showed BTK degradation |  | COc1cc(Nc2c(C#N)cnc3cc(OCCCN4CCN(C(=O)CCCNC(=O)COc5cccc6c5C(=O)N(C5CCC(=O)NC5=O)C6=O)CC4)c(OC)cc23)c(Cl)cc1Cl (stereo not drawn) [Compound I-5]
